US4089965A, “Thiazolylphenylguanidines as antirhinovirus agents” (American Cyanamid Company, priority 1977, dated 1978)

What was measured:
Assay in all cases: Protection of tissue from cytopathic effects (plaque inhibition, filter paper disc or agar overlay)
Details in all cases: 33°, 3 to 5 days
[1] = system: Rhinovirus strain 2
[2] = system: Rhinovirus strain 5; note: test concentration or dose not given here
[3] = system: Rhinovirus strain 1B
[4] = system: Rhinovirus strain 23; note: test concentration or dose not given here
[5] = system: Rhinovirus strain 14

Measured: Protection of tissue from destruction by virus

N=C(Nc1cccc(Cl)c1)Nc1nc(-c2ccccc2)cs1 [1-(4-phenyl-2-thiazolyl)-3-(3-chlorophenyl) guanidine]
+: [1]

N=C(Nc1ccc(C(=O)O)cc1)Nc1nc(-c2ccccc2)cs1 [1-(4-phenyl-2-thiazolyl)-3-(4-carboxyphenyl) guanidine]
+: all assays above

N=C(Nc1ccc(F)cc1)Nc1nc(-c2ccccc2)cs1 [1-(4-phenyl-2-thiazolyl)-3-(4-fluorophenyl) guanidine]
+: [1] | [2] | [3]

Cc1ccc(NC(=N)Nc2nc(-c3ccccc3)cs2)cc1 [1-(4-phenyl-2-thiazolyl)-3-(p-tolyl)guanidine]
+: all assays above

COC(=O)c1ccc(NC(=N)Nc2nc(-c3ccccc3)cs2)cc1 [1-(4-phenyl-thiazolyl)-3-(4-carbomethoxyphenyl)-guanidine]
+: [1] | [4]

Cc1ccc(NC(=N)Nc2nc(-c3ccc(Cl)cc3)cs2)cc1 [1-[4-(4-chlorophenyl)-2-thiazolyl-3-(p-tolyl)guanidine]]
+: [1] | [3]
